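Step 1: Grow cells in 96-well plates. Step 2: Expose to compound for 48 hours at 5 concentrations. Step 3: Interpolate endpoints linearly; if unreached, use highest concentration. The concentration for 50% growth inhibition is given as GI50.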 Active and inactive are the calls of the source. Rule as the data show it: active = GI50 up to about 1.1 µM and inactive = higher.
Tests used:
Test in all cases: NCI tumour cell line growth inhibition, 48 h
M14 = test system: M14
TK-10 = test system: TK-10
OVCAR-5 = test system: OVCAR-5
NCI/ADR-RES = test system: NCI/ADR-RES
MCF7 = test system: MCF7
Malme-3M = test system: Malme-3M
HCT-15 = test system: HCT-15
SF-295 = test system: SF-295
NCI-H522 = test system: NCI-H522
SNB-19 = test system: SNB-19
OVCAR-8 = test system: OVCAR-8
K562 = test system: K562
OVCAR-3 = test system: OVCAR-3
A498 = test system: A498
UACC-257 = test system: UACC-257
DU-145 = test system: DU-145
RXF 393 = test system: RXF 393
KM12 = test system: KM12
SR = test system: SR

Row | Structure (SMILES) | GI50 (M14) | GI50 (TK-10) | GI50 (OVCAR-5) | GI50 (NCI/ADR-RES) | GI50 (MCF7) | GI50 (Malme-3M) | GI50 (HCT-15) [µM] | GI50 (SF-295) | GI50 (NCI-H522) | GI50 (SNB-19) | GI50 (OVCAR-8) | GI50 (K562) | GI50 (OVCAR-3) | GI50 (A498) | GI50 (UACC-257) | GI50 (DU-145) | GI50 (RXF 393) | GI50 (KM12) | GI50 (SR)
1 | CN(CCNC(=O)c1nn(-c2ccc(Cl)cc2Cl)c2c1Cc1ccccc1-2)CCNC(=O)c1nn(-c2ccc(Cl)cc2Cl)c2c1Cc1ccccc1-2 | 1.81 µM (inactive) | 6.31 µM (inactive) | 20 µM (inactive) | 3.39 µM (inactive) | 2.56 µM (inactive) | 1.42 µM (inactive) | 2.29 | 2.43 µM (inactive) | 1.58 µM (inactive) | 3.71 µM (inactive) | 2.07 µM (inactive) | 1.57 µM (inactive) | 3.55 µM (inactive) | 5.14 µM (inactive) | 2.12 µM (inactive) | 4.69 µM (inactive) | 2.25 µM (inactive) | 3.49 µM (inactive) | 
2 | CCCC1=NC(C(F)(F)F)(C(F)(F)F)N=C(N2CCOCC2)O1 | > 100 µM (inactive) | > 100 µM (inactive) | > 100 µM (inactive) | > 100 µM (inactive) | > 100 µM (inactive) | > 100 µM (inactive) | > 100 | > 100 µM (inactive) |  | > 100 µM (inactive) | > 100 µM (inactive) | > 100 µM (inactive) | > 100 µM (inactive) |  | > 100 µM (inactive) | > 100 µM (inactive) | > 100 µM (inactive) | > 100 µM (inactive) | > 100 µM (inactive)
3 | O=C(NC(=S)Nc1ccc2c(c1)Sc1ccccc1O2)c1ccc([N+](=O)[O-])cc1 | > 100 µM (inactive) | > 100 µM (inactive) | > 100 µM (inactive) | > 100 µM (inactive) | > 100 µM (inactive) | > 100 µM (inactive) | > 100 | > 100 µM (inactive) | > 100 µM (inactive) | > 100 µM (inactive) | > 100 µM (inactive) | > 100 µM (inactive) | > 100 µM (inactive) |  | > 100 µM (inactive) | > 100 µM (inactive) | > 100 µM (inactive) | > 100 µM (inactive) | > 100 µM (inactive)
4 | COc1cc(OC)c2c(c1)OC(c1ccccc1)CC2=O (stereo not given) [DIMETHYLPINOCEMBRIN] | > 10 µM (inactive) | > 10 µM (inactive) | > 10 µM (inactive) | > 10 µM (inactive) | > 10 µM (inactive) | > 10 µM (inactive) | > 10 | > 10 µM (inactive) | > 10 µM (inactive) | > 10 µM (inactive) | > 10 µM (inactive) | > 10 µM (inactive) | > 10 µM (inactive) |  | > 10 µM (inactive) | > 10 µM (inactive) | > 10 µM (inactive) | > 10 µM (inactive) | > 10 µM (inactive)
5 | O=c1cc(N2CCOCC2)n2c(ccc3ccccc32)n1 | > 100 µM (inactive) | > 100 µM (inactive) | > 100 µM (inactive) | > 100 µM (inactive) | > 100 µM (inactive) | > 100 µM (inactive) | > 100 | > 100 µM (inactive) | > 100 µM (inactive) | > 100 µM (inactive) | > 100 µM (inactive) | > 100 µM (inactive) | > 100 µM (inactive) | > 100 µM (inactive) | > 100 µM (inactive) |  | > 100 µM (inactive) | > 100 µM (inactive) | > 100 µM (inactive)
6 | Cc1ccc(/N=N/c2c(O)c(C(=O)Nc3ccccc3)cc3ccccc23)c([N+](=O)[O-])c1 | > 100 µM (inactive) | > 100 µM (inactive) | > 100 µM (inactive) | > 100 µM (inactive) |  | > 100 µM (inactive) | > 100 | 70.8 µM (inactive) | > 100 µM (inactive) | > 100 µM (inactive) | > 100 µM (inactive) | > 100 µM (inactive) | > 100 µM (inactive) | > 100 µM (inactive) | > 100 µM (inactive) | > 100 µM (inactive) | > 100 µM (inactive) | > 100 µM (inactive) | 
7 | O=C1C=C(Cl)C(=O)C(c2ccc(Cl)cc2)=C1 | 17 µM (inactive) | 21.2 µM (inactive) | 17 µM (inactive) | 26.4 µM (inactive) | 16.3 µM (inactive) | 20.3 µM (inactive) | 18.8 | 45.6 µM (inactive) | 5.05 µM (inactive) | 89.3 µM (inactive) | 18.2 µM (inactive) | 4.19 µM (inactive) | 16.6 µM (inactive) | 23.8 µM (inactive) | 18.6 µM (inactive) | 22 µM (inactive) | 18.4 µM (inactive) | 32.3 µM (inactive) | 
8 | COc1ccc(C(CC(=O)c2ccc3c(c2)OCO3)c2c(O)oc3ccccc3c2=O)cc1OC (stereo not given) | 1 µM (active) | 67.8 µM (inactive) | > 100 µM (inactive) | > 100 µM (inactive) | 69.3 µM (inactive) | > 100 µM (inactive) | > 100 | > 100 µM (inactive) | > 100 µM (inactive) | > 100 µM (inactive) | > 100 µM (inactive) | 63.5 µM (inactive) | 82.8 µM (inactive) | > 100 µM (inactive) | > 100 µM (inactive) | > 100 µM (inactive) | > 100 µM (inactive) | > 100 µM (inactive) | 
9 | OC(c1ccoc1)c1cc2ccccc2s1 (stereo not given) | > 10 µM (inactive) | > 10 µM (inactive) | > 10 µM (inactive) | > 10 µM (inactive) | > 10 µM (inactive) |  | > 10 | > 10 µM (inactive) | > 10 µM (inactive) | > 10 µM (inactive) | > 10 µM (inactive) | > 10 µM (inactive) | > 10 µM (inactive) |  | > 10 µM (inactive) | > 10 µM (inactive) | > 10 µM (inactive) | > 10 µM (inactive) | > 10 µM (inactive)
10 | Cc1cc2nc3c(C#N)c4c(c(Cl)n3c2cc1C)CCC4 |  | 24.7 µM (inactive) | 25.1 µM (inactive) | 18.3 µM (inactive) |  | 52.8 µM (inactive) | 17.6 | > 100 µM (inactive) | 17.4 µM (inactive) |  | 20.2 µM (inactive) |  | 21.3 µM (inactive) | > 100 µM (inactive) | 36.7 µM (inactive) |  | 16.6 µM (inactive) | 38.5 µM (inactive) | 
11 | O=C(C#Cc1cn(C2CC(O)C(CO)O2)c(=O)[nH]c1=O)c1ccccc1 (stereo not given) | 28.5 µM (inactive) | > 100 µM (inactive) |  | 32.6 µM (inactive) | 33.3 µM (inactive) | 12.2 µM (inactive) | > 100 | > 100 µM (inactive) | 5.6 µM (inactive) | > 100 µM (inactive) | > 100 µM (inactive) |  | 21.1 µM (inactive) |  | 55 µM (inactive) | > 100 µM (inactive) | 17.5 µM (inactive) | > 100 µM (inactive) | 24.8 µM (inactive)
12 | O=C1C(=CNc2ccc([N+](=O)[O-])cc2)C(=O)N(c2ccccc2)C(=O)N1c1ccccc1 | 73.1 µM (inactive) | 25.5 µM (inactive) | > 100 µM (inactive) | > 100 µM (inactive) | > 100 µM (inactive) | > 100 µM (inactive) | 76 | 66.2 µM (inactive) | > 100 µM (inactive) | > 100 µM (inactive) | > 100 µM (inactive) | > 100 µM (inactive) | 56.6 µM (inactive) | > 100 µM (inactive) | > 100 µM (inactive) |  | > 100 µM (inactive) | 36.7 µM (inactive) | > 100 µM (inactive)
13 | Oc1cnnc2nc3ccccc3n12 | > 100 µM (inactive) | > 100 µM (inactive) | > 100 µM (inactive) | > 100 µM (inactive) | > 100 µM (inactive) | > 100 µM (inactive) | > 100 | > 100 µM (inactive) | > 100 µM (inactive) | > 100 µM (inactive) | > 100 µM (inactive) |  |  | > 100 µM (inactive) | > 100 µM (inactive) | > 100 µM (inactive) | > 100 µM (inactive) | > 100 µM (inactive) | 
14 | CCCCCCC1CC(=O)C1(Cl)Cl (stereo not given) | 26.7 µM (inactive) | > 100 µM (inactive) | > 100 µM (inactive) | 32.2 µM (inactive) | 26.4 µM (inactive) | 16.1 µM (inactive) | 31 | 33.9 µM (inactive) | 17.3 µM (inactive) | 63.7 µM (inactive) | 23.2 µM (inactive) | 14.7 µM (inactive) |  |  | 18.7 µM (inactive) | 26.9 µM (inactive) |  | 22.4 µM (inactive) | > 10 µM (inactive)
15 | CN(C(=O)c1ccccc1)C1CCCC(=O)CC1 (stereo not given) | > 100 µM (inactive) | > 100 µM (inactive) | > 100 µM (inactive) |  | > 100 µM (inactive) | > 100 µM (inactive) | > 100 | > 100 µM (inactive) | > 100 µM (inactive) | > 100 µM (inactive) | > 100 µM (inactive) | > 100 µM (inactive) | > 100 µM (inactive) | > 100 µM (inactive) | > 100 µM (inactive) | > 100 µM (inactive) | > 100 µM (inactive) | > 100 µM (inactive) | > 100 µM (inactive)
16 | CC(C(=O)COCc1ccccc1)P1(=O)OC(C)(C)CN1C(C)(C)C (stereo not given) | > 100 µM (inactive) | > 100 µM (inactive) | 49.4 µM (inactive) | > 100 µM (inactive) | > 100 µM (inactive) |  | > 100 | > 100 µM (inactive) | > 100 µM (inactive) |  | > 100 µM (inactive) |  | > 100 µM (inactive) | > 100 µM (inactive) | > 100 µM (inactive) | > 100 µM (inactive) | > 100 µM (inactive) | > 100 µM (inactive) | 
17 | CC(C)(C)C1=CC(C)(n2[nH]c(=O)n(-c3ccccc3)c2=O)C=C(C(C)(C)C)C1=O |  | > 100 µM (inactive) |  | > 100 µM (inactive) | > 100 µM (inactive) | > 100 µM (inactive) | > 100 | > 100 µM (inactive) | > 100 µM (inactive) | > 100 µM (inactive) | > 100 µM (inactive) | 47 µM (inactive) |  | > 100 µM (inactive) | > 100 µM (inactive) | > 100 µM (inactive) |  | > 100 µM (inactive) | 

Source: ChEMBL document CHEMBL1201862, “PubChem BioAssay data set” (2004)
